Results from the NIST ThermoML archive (doi:10.1021/je700224j).

Conditions: Liquid

CCCC[n+]1ccn(C)c1.O=S(=O)([N-]S(=O)(=O)C(F)(F)F)C(F)(F)F
Conditions | mass density [kg/m3]
293.49 K, 101.33 kPa | 1442.2
293.49 K, 1000 kPa | 1442.8
293.49 K, 10000 kPa | 1449
293.49 K, 30000 kPa | 1462.1
293.49 K, 40000 kPa | 1468.4
293.5 K, 5000 kPa | 1445.6
293.5 K, 20000 kPa | 1455.7
303.15 K, 101.33 kPa | 1433
312.84 K, 101.33 kPa | 1423.9
322.3 K, 10000 kPa | 1422.5
322.3 K, 40000 kPa | 1443.6
322.31 K, 101.33 kPa | 1414.9
322.31 K, 1000 kPa | 1415.6
322.31 K, 20000 kPa | 1429.8
322.31 K, 30000 kPa | 1436.8
322.32 K, 5000 kPa | 1418.7
332.78 K, 101.33 kPa | 1405.1
342.98 K, 101.33 kPa | 1395.5
352.31 K, 5000 kPa | 1390.9
352.31 K, 10000 kPa | 1395.1
352.32 K, 20000 kPa | 1403
352.32 K, 30000 kPa | 1410.7
352.32 K, 40000 kPa | 1418
352.33 K, 101.33 kPa | 1386.6
352.33 K, 1000 kPa | 1387.5
373.3 K, 30000 kPa | 1392.7
373.31 K, 5000 kPa | 1371.6
373.31 K, 20000 kPa | 1384.5
373.32 K, 101.33 kPa | 1367.1
373.32 K, 1000 kPa | 1368
373.32 K, 10000 kPa | 1376
373.33 K, 40000 kPa | 1400.4
391.27 K, 1000 kPa | 1351.3
391.28 K, 101.33 kPa | 1350.4
391.28 K, 10000 kPa | 1359.8
391.28 K, 20000 kPa | 1368.8
391.28 K, 30000 kPa | 1377.3
391.28 K, 40000 kPa | 1385.4
391.3 K, 5000 kPa | 1355.1
414.91 K, 20000 kPa | 1348.1
414.91 K, 40000 kPa | 1365.8
414.92 K, 101.33 kPa | 1328.5
414.92 K, 1000 kPa | 1329.5
414.92 K, 5000 kPa | 1333.6
414.92 K, 10000 kPa | 1338.6
414.92 K, 30000 kPa | 1357.2

CCn1cc[n+](C)c1.O=S(=O)([N-]S(=O)(=O)C(F)(F)F)C(F)(F)F
Conditions | mass density [kg/m3]
293.49 K, 101.33 kPa | 1522.3
293.49 K, 10000 kPa | 1527.8
293.49 K, 20000 kPa | 1533.3
293.49 K, 30000 kPa | 1538.6
293.49 K, 40000 kPa | 1543.6
293.5 K, 1000 kPa | 1522.9
293.5 K, 5000 kPa | 1525
302.68 K, 101.33 kPa | 1513.2
312.64 K, 101.33 kPa | 1503.2
322.3 K, 101.33 kPa | 1493.2
322.3 K, 10000 kPa | 1499.5
322.3 K, 20000 kPa | 1505.3
322.3 K, 40000 kPa | 1516.3
322.31 K, 5000 kPa | 1496.5
322.31 K, 30000 kPa | 1510.9
322.32 K, 1000 kPa | 1494
332.58 K, 101.33 kPa | 1483.2
342.49 K, 101.33 kPa | 1473.6
352.3 K, 20000 kPa | 1476.5
352.3 K, 40000 kPa | 1488.2
352.31 K, 10000 kPa | 1470.2
352.32 K, 101.33 kPa | 1463.6
352.32 K, 5000 kPa | 1467
352.32 K, 30000 kPa | 1482.5
352.34 K, 1000 kPa | 1464.4
373.3 K, 5000 kPa | 1446.5
373.3 K, 30000 kPa | 1462.8
373.31 K, 1000 kPa | 1443.9
373.32 K, 101.33 kPa | 1443.2
373.32 K, 10000 kPa | 1449.9
373.33 K, 20000 kPa | 1456.5
373.33 K, 40000 kPa | 1468.7
391.25 K, 1000 kPa | 1426.3
391.28 K, 10000 kPa | 1432.6
391.28 K, 30000 kPa | 1446
391.29 K, 101.33 kPa | 1425.6
391.29 K, 5000 kPa | 1429
391.31 K, 20000 kPa | 1439.4
391.31 K, 40000 kPa | 1452.3
414.92 K, 101.33 kPa | 1402.4
414.92 K, 5000 kPa | 1406
414.92 K, 10000 kPa | 1409.8
414.92 K, 20000 kPa | 1417.2
414.92 K, 30000 kPa | 1424.2
414.92 K, 40000 kPa | 1430.9
414.93 K, 1000 kPa | 1403.1
